# Several values for one entry are separate records, joined by “and”; a condition that tells them apart may be missing. Equal entries are not always repeated. Structures can show the parent of a compound that is named as a salt.
# How the values were obtained:
# intraocular pressure = test: Intraocular pressure (pneumotonometer) after repeated topical and subcutaneous administration in normotensive rabbits; format: in vivo, New Zealand White rabbits
# Procedure: To measure the tolerability and effect of Compound 1 (sodium salt) on intraocular pressure following repeated topical and subcutaneous administration, normotensive New Zealand White rabbits were treated with Compound 1 (sodium salt). Animals were acclimated 1 to 2 times per day to the intraocular pressure (IOP) measurement procedures prior to initiation of the study to determine baseline IOP levels. IOP acclimation was performed in the two weeks prior to study start for a total of 5 days. Animals with unacceptable IOP values were excluded from the study. Prior to taking all IOP measurements, 1 to 2 drops of a 0.5% proparacaine solution were applied to the eye as a topical anesthetic. OP measurements were performed with a pneumotonometer. Test and control formulations were administered to the animals once or twice daily topically into both eyes or subcutaneously starting on Day 1 according to TABLE 20 and TABLE 21 below. PM dosing, where applicable, was performed ˜8 hours after AM dosing. IOP measurements were performed twice (AM and PM) at baseline (prior to the start of dosing), twice (AM and PM) on Days 1 and 7, and once daily (AM) on Days 2-6 and Day 8. Prior to taking all IOP measurements, 1 to 2 drops of a 0.5% proparacaine solution were applied to the eye as a topical anesthetic. IOP measurements were performed with a pneumotonometer. AM IOP measurements were performed 2 hours after AM dosing; the only exceptions were Day 8 AM measurements, which were performed 24 hours after the final dose. PM IOP measurements were performed ˜5 hours (baseline and Day 1) or ˜4 hours (Day 7) after AM IOP measurements, prior to PM dosing, with at least 15 minutes elapsing between anesthetic application for PM IOP measurements and PM dosing. The final round of slit-lamp examinations was performed on Day 8.
# [1] = Ocular abnormalities in the ocular pharmacokinetics study; format: in vivo, New Zealand White rabbits; conditions: all dose groups (topical ocular, subcutaneous, intravitreal)
# Procedure: Pre-screening clinical ophthalmic exams were done prior to study (includes slit-lamp biomicroscopy and indirect ophthalmoscopy). Ocular findings were scored using the McDonald-Shadduck Score System, and only animals that scored zero in all categories were used in the study.
# Concentration versus time data is plotted in FIGS. 3-16. All data are expressed as ng/g of the free drug. Samples that were below the limit of quantitation (0.2 ng/mL) were not used in the calculation of averages.
# [2] = Group 2, 0.45 mg/eye topical BID, Day 1, AM, OS
# [3] = Group 2, 0.45 mg/eye topical BID, Day 1, PM, OD
# [4] = Group 2, 0.45 mg/eye topical BID, Day 2, AM, OD
# [5] = Group 2, 0.45 mg/eye topical BID, Day 2, AM, OS
# [6] = Group 2, 0.45 mg/eye topical BID, Day 3, AM, OD
# [7] = Group 2, 0.45 mg/eye topical BID, Day 3, AM, OS
# [8] = Group 2, 0.45 mg/eye topical BID, Day 4, AM, OD
# [9] = Group 2, 0.45 mg/eye topical BID, Day 4, AM, OS
# [10] = Group 2, 0.45 mg/eye topical BID, Day 5, AM, OD
# [11] = Group 3, 1.2 mg/eye topical BID, Day 1, AM, OD
# [12] = Group 3, 1.2 mg/eye topical BID, Day 1, AM, OS
# [13] = Group 3, 1.2 mg/eye topical BID, Day 1, PM, OD
# [14] = Group 3, 1.2 mg/eye topical BID, Day 2, AM, OS
# [15] = Group 3, 1.2 mg/eye topical BID, Day 3, AM, OD
# [16] = Group 3, 1.2 mg/eye topical BID, Day 3, AM, OS
# [17] = Group 3, 1.2 mg/eye topical BID, Day 4, AM, OD
# [18] = Group 3, 1.2 mg/eye topical BID, Day 4, AM, OS
# [19] = Group 3, 1.2 mg/eye topical BID, Day 5, AM, OS
# [20] = Group 4, 1.2 mg/eye topical QD, Day 1, AM, OD
# [21] = Group 4, 1.2 mg/eye topical QD, Day 2, AM, OD
# [22] = Group 4, 1.2 mg/eye topical QD, Day 5, AM, OD
structure (smiles),measurement,setting,value
COC(=O)N[C@@H](Cc1ccccc1)C(=O)N[C@@H](Cc1ccc(NS(=O)(=O)O)cc1)c1csc(-c2cccs2)n1 [Compound 1 sodium salt],"Intraocular pressure (IOP), individual animal","intraocular pressure; Group 2, 0.45 mg/eye topical BID, Day 1, AM, OD",20.3 and 23.7 and 24.0 and 20.7 and 21.7
same,"Intraocular pressure (IOP), group Average",intraocular pressure; [2],23.3
same,"Intraocular pressure (IOP), individual animal",intraocular pressure; [2],20.7 and 25.2 and 23.3
same,"Intraocular pressure (IOP), group Average",intraocular pressure; [3],25.5
same,"Intraocular pressure (IOP), individual animal",intraocular pressure; [3],24.8 and 22.0
same,"Intraocular pressure (IOP), individual animal","intraocular pressure; Group 2, 0.45 mg/eye topical BID, Day 1, PM, OS",25.3
same,"Intraocular pressure (IOP), group Average",intraocular pressure; [4],21.9
same,"Intraocular pressure (IOP), individual animal",intraocular pressure; [4],22.0 and 22.7 and 25.0
same,"Intraocular pressure (IOP), group Average",intraocular pressure; [5],22.2
same,"Intraocular pressure (IOP), individual animal",intraocular pressure; [5],22.3 and 24.3
same,"Intraocular pressure (IOP), group Average",intraocular pressure; [6],24.0
same,"Intraocular pressure (IOP), individual animal",intraocular pressure; [6],25.0 and 24.2 and 26.0 and 23.8
same,"Intraocular pressure (IOP), group Average",intraocular pressure; [7],24.5
same,"Intraocular pressure (IOP), individual animal",intraocular pressure; [7],25.3 and 23.5 and 26.0 and 23.0
same,"Intraocular pressure (IOP), group Average",intraocular pressure; [8],23.9
same,"Intraocular pressure (IOP), individual animal",intraocular pressure; [8],23.8 and 22.0 and 26.7 and 25.7
same,"Intraocular pressure (IOP), group Average",intraocular pressure; [9],24.3
same,"Intraocular pressure (IOP), individual animal",intraocular pressure; [9],23.0 and 22.7 and 26.3 and 23.5 and 26.2
same,"Intraocular pressure (IOP), group Average",intraocular pressure; [10],25.2
same,"Intraocular pressure (IOP), individual animal",intraocular pressure; [10],22.8 and 28.0 and 20.7 and 25.7
same,"Intraocular pressure (IOP), individual animal","intraocular pressure; Group 2, 0.45 mg/eye topical BID, Day 5, AM, OS",25.0 and 28.0 and 24.2 and 26.3
same,"Intraocular pressure (IOP), group Average","intraocular pressure; Group 2, 0.45 mg/eye topical BID, Day 6, AM, OD",25.5
same,"Intraocular pressure (IOP), group Average","intraocular pressure; Group 2, 0.45 mg/eye topical BID, Day 7, AM, OD",23.7
same,"Intraocular pressure (IOP), group Average","intraocular pressure; Group 2, 0.45 mg/eye topical BID, Day 7, AM, OS",24.5
same,"Intraocular pressure (IOP), group Average",intraocular pressure; [11],22.0
same,"Intraocular pressure (IOP), individual animal",intraocular pressure; [11],23.2 and 24.0 and 20.2
same,"Intraocular pressure (IOP), group Average",intraocular pressure; [12],23.2
same,"Intraocular pressure (IOP), individual animal",intraocular pressure; [12],23.8 and 23.0 (2×)
same,"Intraocular pressure (IOP), group Average",intraocular pressure; [13],24.1
same,"Intraocular pressure (IOP), individual animal",intraocular pressure; [13],24.7 and 25.2
same,"Intraocular pressure (IOP), individual animal","intraocular pressure; Group 3, 1.2 mg/eye topical BID, Day 1, PM, OS",24.5 (2×) and 23.7 and 25.0
same,"Intraocular pressure (IOP), individual animal","intraocular pressure; Group 3, 1.2 mg/eye topical BID, Day 2, AM, OD",17.5 and 25.5
same,"Intraocular pressure (IOP), group Average",intraocular pressure; [14],21.2
same,"Intraocular pressure (IOP), individual animal",intraocular pressure; [14],20.2 and 24.0 and 24.5
same,"Intraocular pressure (IOP), group Average",intraocular pressure; [15],20.7
same,"Intraocular pressure (IOP), individual animal",intraocular pressure; [15],20.0 and 23.0 and 22.2
same,"Intraocular pressure (IOP), group Average",intraocular pressure; [16],21.2
same,"Intraocular pressure (IOP), individual animal",intraocular pressure; [16],20.0 and 22.7 and 23.0
same,"Intraocular pressure (IOP), group Average",intraocular pressure; [17],22.8
same,"Intraocular pressure (IOP), individual animal",intraocular pressure; [17],23.2 and 24.8 and 22.2
same,"Intraocular pressure (IOP), group Average",intraocular pressure; [18],23.2
same,"Intraocular pressure (IOP), individual animal",intraocular pressure; [18],23.3 and 24.2 and 24.5 and 22.3
same,"Intraocular pressure (IOP), individual animal","intraocular pressure; Group 3, 1.2 mg/eye topical BID, Day 5, AM, OD",21.5 and 23.7
same,"Intraocular pressure (IOP), group Average",intraocular pressure; [19],22.0
same,"Intraocular pressure (IOP), individual animal",intraocular pressure; [19],22.3 and 23.5
same,"Intraocular pressure (IOP), group Average","intraocular pressure; Group 3, 1.2 mg/eye topical BID, Day 6, AM, OS",24.7
same,"Intraocular pressure (IOP), group Average","intraocular pressure; Group 3, 1.2 mg/eye topical BID, Day 7, AM, OS",22.0
same,"Intraocular pressure (IOP), group Average","intraocular pressure; Group 3, 1.2 mg/eye topical BID, Day 7, PM, OD",23.7
same,IOP values compared to Group 1 (Vehicle),"intraocular pressure; Group 3, 1.2 mg/eye topical BID, over the course of dosing",lower IOP values
same,"Intraocular pressure (IOP), group Average",intraocular pressure; [20],21.2
same,"Intraocular pressure (IOP), individual animal",intraocular pressure; [20],22.0 and 20.2
same,"Intraocular pressure (IOP), individual animal","intraocular pressure; Group 4, 1.2 mg/eye topical QD, Day 1, AM, OS",22.0 and 23.3 and 21.2
same,"Intraocular pressure (IOP), individual animal","intraocular pressure; Group 4, 1.2 mg/eye topical QD, Day 1, PM, OD",21.3 and 24.0
same,"Intraocular pressure (IOP), individual animal","intraocular pressure; Group 4, 1.2 mg/eye topical QD, Day 1, PM, OS",22.5 and 25.5
same,"Intraocular pressure (IOP), group Average",intraocular pressure; [21],20.0
same,"Intraocular pressure (IOP), individual animal",intraocular pressure; [21],20.0 and 20.3
same,"Intraocular pressure (IOP), individual animal","intraocular pressure; Group 4, 1.2 mg/eye topical QD, Day 2, AM, OS",21.0
same,"Intraocular pressure (IOP), individual animal","intraocular pressure; Group 4, 1.2 mg/eye topical QD, Day 3, AM, OD",23.5 and 21.0
same,"Intraocular pressure (IOP), individual animal","intraocular pressure; Group 4, 1.2 mg/eye topical QD, Day 3, AM, OS",20.0 and 21.2
same,"Intraocular pressure (IOP), individual animal","intraocular pressure; Group 4, 1.2 mg/eye topical QD, Day 4, AM, OD",21.5 and 22.2 and 20.7
same,"Intraocular pressure (IOP), individual animal","intraocular pressure; Group 4, 1.2 mg/eye topical QD, Day 4, AM, OS",20.0 and 24.3 and 23.5
same,"Intraocular pressure (IOP), group Average",intraocular pressure; [22],21.0
same,"Intraocular pressure (IOP), individual animal",intraocular pressure; [22],23.8
same,"Intraocular pressure (IOP), individual animal","intraocular pressure; Group 4, 1.2 mg/eye topical QD, Day 5, AM, OS",22.7 and 22.0
same,"Intraocular pressure (IOP), group Average","intraocular pressure; Group 4, 1.2 mg/eye topical QD, Day 7, AM, OS",23.0
same,IOP values compared to Group 1 (Vehicle),"intraocular pressure; Group 4, 1.2 mg/eye topical QD, over the course of dosing",lower IOP values
same,IOP values compared to Group 1 (Vehicle),"intraocular pressure; Group 5, 10 mg/kg subcutaneous BID",Lower IOP values compared to Group 1 were also seen in the early part of the study
same,"Intraocular pressure (IOP), group Average","intraocular pressure; Group 5, 10 mg/kg subcutaneous BID, Day 2, AM, OD",21.5
same,"Intraocular pressure (IOP), group Average","intraocular pressure; Group 5, 10 mg/kg subcutaneous BID, Day 3, AM, OD",20.7
same,"Intraocular pressure (IOP), group Average","intraocular pressure; Group 5, 10 mg/kg subcutaneous BID, Day 3, AM, OS",21.3
same,"Intraocular pressure (IOP), group Average","intraocular pressure; Group 5, 10 mg/kg subcutaneous BID, Day 4, AM, OD",21.9
same,"Intraocular pressure (IOP), group Average","intraocular pressure; Group 5, 10 mg/kg subcutaneous BID, Day 6, AM, OD",24.5
same,"Intraocular pressure (IOP), group Average","intraocular pressure; Group 5, 10 mg/kg subcutaneous BID, Day 6, AM, OS",25.0
same,"Intraocular pressure (IOP), group Average","intraocular pressure; Group 5, 10 mg/kg subcutaneous BID, Day 7, AM, OS",23.9
same,"Intraocular pressure (IOP), group Average","intraocular pressure; Group 5, 10 mg/kg subcutaneous BID, Day 7, PM, OD",24.1
same,"Intraocular pressure (IOP), group Average","intraocular pressure; Group 5, 10 mg/kg subcutaneous BID, Day 8, AM, OS",24.0
same,apparent reduction in intraocular pressure values,"intraocular pressure; Groups 3 and 4 (1.2 mg/eye topical BID, QD), Day 7 and Day 8 (24 hours after the end of dosing)",persisted
same,effect on intraocular pressure,"intraocular pressure; topically administered, 1.2 mg/eye dose, QD or BID",observed to reduce intraocular pressure
COC(=O)N[C@@H](Cc1ccccc1)C(=O)N[C@@H](Cc1ccc(NS(=O)(=O)O)cc1)c1csc(-c2cccs2)n1 [Compound 1],ocular abnormalities,[1],No ocular abnormalities
